This passage reports cytotoxicity results from ChEMBL document CHEMBL3507680, “University of Dundee, Gates Library screen for HepG2 cell viability”.

SMILES strings stand for the structures.

A short description of the series: Human HepG2 cell viability assay in 384 well format. Format: toxicity, cell-based. Set-up: dose 125 nL, time 70.5 hour; concentration not given beside the values. Particulars: HepG2 cells, read-out: Inhibition.
Consider `Cn1cnc(S(=O)(=O)N2C[C@@H]3CC[C@H](C2)N(Cc2ccccn2)C3)c1`, for which the cytotoxicity at 70.5 h is -7.24%.
The same measure for `CC(=O)Nc1ccc(SCC(=O)NCC2CCCO2)nn1` (centres undefined): -2.02%; for `O=S(=O)(C1CC1)N1CCc2onc(COc3ccccn3)c2C1`: 34.6%.
`NC(=O)COc1ccc(CNCc2cc(F)ccc2F)cc1`: the cytotoxicity at 70.5 h was 32.7%.
The same measure for `CC(O)c1cccc(N2CCC3(CC2)Nc2ccccc2NC3=O)n1` (centres undefined): 21.3%; for `CC(C)NC(=O)c1ccc2c(c1)nc1n2CCN(Cc2ccco2)C1`: -10.4%.
For `COCCN1CCCC(O)(CN2CCN(c3ncccc3C)CC2)C1=O` (centres undefined) the value was -7.68%; for `Cc1noc(C)c1CN1CCC(N(C)Cc2noc(C(C)C)n2)C1` (centres undefined), 5.99%; for `Cc1noc(C2CCN(C(=O)c3c(C)noc3C)CC2)n1`, -10.7%.
Regarding `CN(C)C[C@@H]1CN(C(=O)c2cc(-c3ccccc3)n[nH]2)C[C@@H]1CO`, the cytotoxicity at 70.5 h is 16.6%.
In the case of `O=C(c1cnccn1)N1CC2(CCN(Cc3ccsc3)C2)C1`, the cytotoxicity at 70.5 h is -4.05%.
The same measure for `c1ccc2c(c1)SCCC2NCc1ccc(N2CCOCC2)cc1` (centres undefined): -3.16%; for `O=C(NC1CCCCC1)NC1CCCc2c1cnn2CCO` (centres undefined): -5.64%.
On to `CCOCC(O)c1nc2c([nH]1)CC(C)(C)CNC2=O` (centres undefined), for which the cytotoxicity at 70.5 h is -11.8%.
The same measure for `NC(=O)c1cc(C2CCCN(C(=O)CCc3ccncc3)C2)n[nH]1` (centres undefined): -4.91%; for `c1cncc(CN2CCn3cc(Cn4cccn4)nc3C2)c1`: -7.42%.
Consider `COc1ccc2nc(CNC(=O)C3CC4(CCNCC4)CN3C)[nH]c2c1` (centres undefined), for which the cytotoxicity at 70.5 h is -20.5%.
The same measure for `CCC1CCN(CCn2cnc3c(C)csc3c2=O)CC1`: -6.08%.
For `c1csc(CN2CCO[C@@H]3CN(C4CCOCC4)C[C@@H]3C2)c1` the value was -10%; for `CN(C)CC1COCCN1C(=O)C1(c2cccs2)CCCC1` (centres undefined), 0.993%; for `Cc1ccnc(C2(C)CCCN2C(=O)c2cnccn2)n1` (centres undefined), -10.4%.
For `O=C(NCC1(C(=O)O)CCC1)c1nnn(-c2ccc(F)cc2)c1C1CC1`, the cytotoxicity at 70.5 h worked out at 11.7%.
The same measure for `Cc1nnc(N2CCCC3(CN(Cc4ccncc4)CCO3)C2)o1` (centres undefined): -2.14%.
For `Cc1cc(CS(=O)(=O)C(C)C(=O)N(C)c2ccccc2)on1` (centres undefined) the value was -28.7%.
In the case of `COCCN1CCC2(CC1)CN(C(=O)Cc1cccnc1)CCO2`, the cytotoxicity at 70.5 h is -5.95%.
Regarding `O=C1NC(=O)c2c3c(nc(O)c21)CCCC3`, the cytotoxicity at 70.5 h stood at 0.775%.
For `CCN(C(c1cccnc1)c1ccc(F)c(F)c1)S(C)(=O)=O` (centres undefined), the cytotoxicity at 70.5 h was -4.7%.
The same measure for `COc1ccc(CNC2CCC(O)CC2)cc1OCCCC#N` (centres undefined): -5.82%; for `COc1ccc(C(=O)N2CC[C@@]3(O)CCCC[C@H]3C2)cc1OC`: 5.36%; for `O=C(O)[C@@H]1CN(CC(=O)N2CCCCCC2)C[C@H]1c1ccc(F)cc1`: -5.12%.
Consider `COc1ccc(CNCc2cc(Br)c3c(c2)OCO3)cc1`, for which the cytotoxicity at 70.5 h was -3.3%.
Take `CNC(=O)NC(=O)CCN1CCCC1c1nc(C2CCCCC2)co1` (centres undefined): the cytotoxicity at 70.5 h is -7.7%.
For `Cc1ccc(C2CC(=O)NCc3nc(N)sc32)cc1C` (centres undefined) the value was -5.03%; for `O=C(CCS(=O)(=O)c1ccccc1)N1CCCC(n2cccn2)C1` (centres undefined), -2.57%.
For `CC1CN(C(=O)NCCNc2cnccn2)CCO1` (centres undefined) the value was 25.6%; for `COc1cccc(C(=O)N2CCCCC2CNC(N)=O)c1` (centres undefined), 9%; for `CCN1CC(O)CN(C(=O)c2ccc(SC)cc2)CC1=O` (centres undefined), -4.25%.
For `COCCn1ccnc1CN1CCc2[nH]cnc2C1c1cccc(O)c1` (centres undefined) the value was -14.3%.
Consider `CC[C@@H]1N(Cc2nccs2)CCC[C@]12CCC(=O)N2CCOC`, for which the cytotoxicity at 70.5 h was -2.16%.
